Assay [1] has as its target RBM39 (Homo sapiens (Human), UniProt Q14498+Q66K64). In words: Western blot assay for degradation of RBM39 in HCT116 cells. Type of assay: cell-based. The conditions noted are these: Incubation Time: 4 hours, read-out: RBM39 Degradation: IC50 (uM) [Incubation Time: 4 hours]. Here is the method: Example 9: Western Blot Assay Procedure for Assessing Degradation of RBM39 in HCT116 Cells
HCT116 cells were used with passage numbers ranging from 13 to 25. Cells were seeded in 12-well plated at a density of 1 million cells per well in 1 mL cell culture medium containing McCoy's 5A medium (Cat. #16600082, ThermoFisher, Waltham, MA), 10% Fetal Bovine Serum (Cat. #26140, ThermoFisher, Waltham, MA) and 1% Pen-Strep (Cat. #. 15070063, ThermoFisher, Waltham, MA) and incubated overnight. The next morning, compounds were serially diluted (1:3, 9 points) in the medium separately and were prepared 2× the final assay concentration. Subsequently, 1.0 mL medium containing DMSO or the appropriate concentration of each compound was added to respective wells. The final DMSO concentration in each well was 0.1%. […] Cells were then washed once with 1 mL of ice cold Dulbecco's phosphate-buffered saline (Cat. #28374, ThermoFisher, Waltham, MA) and then lysed with 100 μl of lysis buffer containing 1×RIPA (Cat. #. 89900, ThermoFisher, Waltham, MA) and HALT protease and phosphatase inhibitor (Cat. #78442, ThermoFisher, Waltham, MA) on ice for 10 minutes with intermittent rocking. Lysates were then sonicated in a sonication bath (3 pulses of 10 sec each with 1 min incubation on ice between each pulse). Samples were then centrifuged for 20 min at 14,000 rpm for 20 min. Supernatants were then transferred to fresh microfuge tubes and stored frozen at −80° C. until use. Total protein quantitation in lysate samples was done using the BCA protein quantitation kit following the manufacturer's instructions. […] Band intensity in images was quantified using the Image Studio Lite software (Version 5.2). Signal intensity for RBM-39 specific bands were normalized using the signal intensity for […] band, and percent degradation was assessed by comparing RBM39 signal in compound-treated vs. DMSO-treated samples.
A general note: A western blot detects proteins with antibodies after separation by electrophoresis.

The target in assay [2] is DCAF15/RBM39 (Homo sapiens (Human), UniProt Q14498+Q66K64). In words: AlphaLISA compound-induced DCAF15-RBM39 ternary complex formation. The class given is binding. The conditions noted are these: His-tagged DCAF15 complex and biotin-carrying RBM39. The procedure: Example 7: Quantitative Evaluation of Compound-Induced Ternary Complex Formation Using Amplified Luminescent Proximity Homogeneous Assay
Compound-induced DCAF15-RBM39 ternary complex formation was monitored using AlphaLISA® assays (Perkin Elmer, Waltham, MA). Test compounds were first collected in a 384-well microplate (cat. #781280, Grenier Bio-One, Monroe, NC) as 2 mM stocks in 100% dimethyl sulfoxide (DMSO). These stocks were then serially diluted in DMSO by 3-fold into a new plate (cat. #781280, Grenier Bio-One, Monroe, NC) using a Mosquito HTS dispenser (Mosquito® HTS, SPT Labtech, Boston, MA). 0.2 μL of these diluted stocks were then dispensed into a 384-well Optiplate (cat. #6007290, Perkin Elmer, Waltham, MA) in duplicate wells, to assemble the final assay plate consisting of duplicated dose ranges. Separately, a protein mixture consisting of His-tagged DCAF15 complex and biotin-carrying RBM39, each at 408 nM (2.04×), was prepared in 50 mM HEPES, pH 7.5, 100 mM NaCl, 2 mM MgCl2, 0.1% BSA, 2 mM TCEP, 0.05% Tween-20 (dilution buffer). 9.8 μL of this protein mixture was then mixed with the compounds in the assay plate and incubated for one hour at room temperature. Reaction mixtures with no compounds added were included as negative controls, while a His-tagged and biotinylated GST protein was included to track general assay performance. Nickel Chelate AlphaLISA Acceptor beads (cat. #AL108M, Perkin Elmer, MA) and AlphaScreen Streptavidin Donor beads (cat. #6760002, Perkin Elmer, Waltham, MA) were prepared separately in the dilution buffer as 4× stocks (80 ug/ml). The beads were then added to the assay plate sequentially with incubation at room temperature for 1-2 hours after each addition. Signals were recorded using EnVision 2104 Multilabel Plate Reader (Perkin Elmer, Waltham, MA) and titration curves were generated in GraphPad Prism (7.00, GraphPad, La Jolla, CA).
(Alpha assays give light when donor and acceptor beads are brought close together.)

Assay [3] has as its target DCAF15 (Homo sapiens (Human), UniProt Q66K64). The experiment in a line: HTRF competition assay, binary interaction with DCAF15. Type of assay: binding. The conditions noted are these: competition with Alexa Fluor 647 tracer. The procedure: Example 8: Measurement of Binary Interaction Between Compounds and DCAF15 Using Homogeneous Time Resolved Fluorescence (HTRF)
DCAF15 interactions with test compounds were monitored using HTRF competition assays (Cisbio, Bedford, MA). Test compounds were first collected in a 384-well microplate (cat. #781280, Grenier Bio-One, Monroe, NC) as 10 mM stocks in 100% dimethyl sulfoxide (DMSO). A second stock plate (cat. #781280, Grenier Bio-One, Monroe, NC) was prepared through 3-fold serial dilution in DMSO of the afore-mentioned stocks using a Mosquito HTS dispenser (mosquito@ HTS, SPT Labtech, Boston, MA). 0.2 μL of these diluted stocks were then dispensed into a 384-well Optiplate (cat. #6007290, Perkin Elmer, Waltham, MA) in duplicate wells, to assemble the assay plate. The tracer molecule containing an Alexa Fluor 647 probe was prepared in 25 mM HEPES pH 7.5, 100 mM NaCl, 0.1 mg/ml BSA, 0.005% Tween 20, 0.5 mM TCEP (dilution buffer) to 612 nM (2.04×). Separately, His-tagged DCAF15 complex was prepared at 32 nM (4×) in the dilution buffer, and mAb Anti-6His-Eu cryptate Gold (cat. #61H12KLA, Cisbio, Bedford, MA) at 4× dilution in the detection buffer (cat. #61DB9RDF, Cisbio, Bedford, MA). These two solutions were mixed and incubated for 15 min at room temperature. 9.8 μL of the tracer solution and 10 μL of the DCAF15/mAb Anti-6His-Eu cryptate Gold mixture were added sequentially to each well in the assay plate. Reaction mixtures with no DCAF15 added were included as positive controls. The final mixture was incubated for an hour at room temperature and spun down briefly before data collection at 615 nm and 666 nm using EnVision 2104 Multilabel Plate Reader (Perkin Elmer, Bedford, MA). Binding was estimated based on ratiometric analysis and titration curves were generated in GraphPad Prism (7.00, GraphPad, La Jolla, CA).
(In general: Time-resolved FRET reads energy transfer from a long-lived donor to a nearby acceptor.)

Usually pEC50 stands for the EC50 on a negative log10 scale, so that one unit is a factor of ten. Low values mean a high EC50, high ones a low EC50. One may read the pIC50 as the negative decadic logarithm of the IC50, by convention in mol/L. The low end stands for a large IC50, the high end for a small IC50.

pEC50, pIC50: −log10 of the molar value.

As for `O=C1CSc2ccc(S(=O)(=O)Nc3ccc(Cl)c4c(Cl)c[nH]c34)cc2N1` [Compound 44, N-(3,4-dichloro-1H-indol-7-yl)-3-oxo-3,4-dihydro-2H-benzo[b][1,4]thiazine-6-sulfonamide], the DC50 in assay [1] is not above 1 µM. The pEC50 in assay [2] was not below 6.00.

Consider `O=C1NCc2cc(S(=O)(=O)Nc3ccc(Cl)c4c(Cl)c[nH]c34)ccc2O1` [Compound 42, N-(3,4-dichloro-1H-indol-7-yl)-2-oxo-3,4-dihydro-2H-benzo[e][1,3]oxazine-6-sulfonamide], for which, in assay [3], the pIC50 is 5.00 to 6.00. The DC50 in assay [1] was not above 1 µM. Besides, in assay [2], the negative logarithm of the EC50 (pEC50) is not below 6.00.

Regarding `O=S1(=O)Cc2ccc(S(=O)(=O)Nc3ccc(Cl)c4c(Cl)c[nH]c34)cc2C1` [Compound 17, N-(3,4-dichloro-1H-indol-7-yl)-1,3-dihydrobenzo[c]thiophene-5-sulfonamide 2,2-dioxide], in assay [3], the pIC50 is 5.00 to 6.00. For the same molecule, the DC50 in assay [1] was not above 1 µM. The molecule also had a pEC50 in assay [2] not below 6.00.

For the origin of these results see US20240425486A1, “FUSED BICYCLIC SUBSTITUTED N-(1H-INDOL-7-YL)BENZENESULFONAMIDES AND USES THEREOF” (Triana Biomedicines, Inc., priority 2021, published 2024).
